According to publication PMC8597745, “The Antimicrobial Peptide MK58911-NH2 Acts on Planktonic, Biofilm, and Intramacrophage Cells of Cryptococcus neoformans” (Antimicrobial Agents and Chemotherapy, 2021):
Values after ≈ are worked out from the molar mass of the structure shown. No end group written: not given here.

How the values were obtained:
C. gattii = experiment: microbe, parasite or virus in culture; conditions: 48 h; for C. gattii MIC: 37°C, RPMI 1640, visual reading; for MIC: Cryptococcus gattii, read-out: C. gattii MIC
Experimental: (§1) C. neoformans ATCC 90112 and C. gattii ATCC 56990 were purchased from the collection of the Laboratory of Clinical Mycology, Faculty of Pharmaceutical Sciences of UNESP, Araraquara, Brazil. Cryptococcus species were grown at 30°C for 48 to 72 h in Sabouraud dextrose agar.
(§2) Anti-Cryptococcus activity was determined by the broth microdilution method according to document M27-A3 from the Clinical and Laboratory Standards Institute ([47]). Briefly, 100 μl of a fungal suspension at […] in RPMI 1640 medium was added to each well of the 96-well plate. Subsequently, 100 μl of MK58911-NH2, MK58911(1–7)-OH, MK58911(8–14)-NH2, MK58911(4–11)-OH, and MH58911 (0.48 to 250 μg/ml); amphotericin B (0.016 to 8 μg/ml); and fluconazole (0.063 to 32 μg/ml), all diluted in RPMI 1640 medium, was added to the plate. The fungal suspension and RPMI 1640 medium were used as the positive and negative controls, respectively. The plate was incubated at 37°C at 150 rpm for 48 h. Next, fungal growth was visually observed, and the MIC was determined. Three independent experiments were performed.

C. neoformans [1] = experiment: microbe, parasite or virus in culture; conditions: 48 h; for C. neoformans MIC: 37°C, RPMI 1640, visual reading; for MIC: Cryptococcus neoformans, read-out: C. neoformans MIC
Experimental: as §1, §2

in vitro [2] = conditions: human, MRC5 pulmonary fibroblasts
Experimental: (§4) The impact of peptides on the viability of pulmonary fibroblasts (MRC5) was also evaluated. Cells were cultured in Dulbecco’s high-glucose modified Eagle medium (DMEM; Gibco, Thermo Fisher Scientific) supplemented with 10% fetal bovine serum (FBS) in 25-cm^2 flasks. For the assay, cells were seeded into 96-well plates at 5 × 10^4 cells/well. The cells were left to grow at 37°C in a 5% CO2 incubator for 24 h until they reached confluence. […] DMEM and dimethyl sulfoxide (DMSO) were used as the positive and negative controls, respectively. The plates were then incubated at 37°C in a 5% CO2 incubator for 24 h. Resazurin (0.01%; Sigma-Aldrich) was then used to assess the viability of the cells according to the manufacturer’s instructions. After 4 h of incubation at 37°C in a 5% CO2 incubator, the fluorescence intensity was measured using a microplate reader (BioTek) at 570 to 600 nm. The fluorescence values were normalized by the positive control and expressed as a percentage of metabolic activity. Values for the 50% inhibitory concentration (IC50) were calculated. Three independent experiments were performed.

in vitro [3] = conditions: mouse, J774 macrophages
Experimental: as §4
The impact of peptides on the viability of macrophages (J774) was also evaluated as described above for MRC5 cells.

C. neoformans [4] = experiment: Zebrafish embryo immersion infection model, fungal burden (CFU); type: in vivo, zebrafish embryos; conditions: immersion infection 1 × 10^6 cells/ml, treatment at the MIC for 24 h
Experimental: (§3) A zebrafish embryo infection model by immersion was used, as previously described for C. albicans, with some modifications ([22]). The housing and breeding of the fish used in this study received appropriate institutional approvals (permit number 01.0082.2014). Briefly, 15 zebrafish embryos at 24 h postfertilization (hpf) and cultured in embryo medium at 28°C were used. Embryos were coincubated in wells with C. neoformans at 1 × 10^6 cells/ml by immersion. The plate was incubated at 28°C at 80 rpm for 24 h. Subsequently, the embryos were washed twice with embryo medium and transferred to a 96-well plate (1 embryo/well). Next, 100 μl of MK58911-NH2, amphotericin B, and fluconazole, all diluted in embryo medium and at the MIC, was added to the wells. The plate was incubated at 28°C at 80 rpm for 24 h. After that, the embryos were lysed individually in 2% Triton X-100–PBS using a 26-gauge needle. A […] dilution was performed in PBS, and 10 μl was plated onto Sabouraud dextrose agar containing 50 mg/liter chloramphenicol. […] The groups were tested in triplicate, and two independent experiments were performed. Images of some embryos 4 h after infection with C. neoformans, labeled with calcofluor white, were acquired with an In Cell Analyzer 2000 microscope (GE).

[5] = test system: C. neoformans biofilm formation; experiment: Antibiofilm activity, biofilm formation at 0 h (XTT reduction); type: cell-based, Cryptococcus neoformans
Experimental: (§5) Briefly, C. neoformans was grown in Sabouraud dextrose broth at 30°C at 150 rpm for 24 h. To evaluate the effect of peptides on biofilm formation, a fungal suspension of 1 × 10^7 cells/ml in minimal medium (20 mg/ml thiamine, 30 mM glucose, 26 mM glycine, 20 mM MgSO4·7H2O, 58.8 mM KH2PO4) was prepared, and 100 μl of the suspension was added to individual wells of 96-well polystyrene plates (TPP, Switzerland). […] The plate was incubated at 37°C for 48 h. To evaluate the effect of the peptides on the mature biofilm, 100 μl of the fungal suspension was added to individual wells of a 96-well plate, and the plate was incubated at 37°C for 48 h. After that period, the supernatant was removed, and the peptides and drugs were added. The plate was again incubated at 37°C for 48 h. The metabolic activity of the biofilms was quantified by the 2,3-bis(2-methoxy-4-nitro-5-sulfophenyl)-5-[(phenylamino)carbonyl]-2H-tetrazolium hydroxide (XTT) reduction assay. For this, a solution with 50 μl of XTT (1 mg/ml in PBS) and 4 μl of menadione (1 mM in ethanol; Sigma-Aldrich, São Paulo, SP, Brazil) was added to each well of the 96-well plate. After 3 h of incubation at 37°C, the fluorescence intensity was measured using a microplate reader (BioTek) at 490 nm. Subsequently, the percentage of metabolic activity of the biofilm treated with peptides/drugs was compared to that of the untreated control. […]

[6] = test system: intramacrophage C. neoformans; experiment: Intramacrophage activity (J774 macrophages infected with C. neoformans, CFU); type: cell-based, Cryptococcus neoformans; conditions: treatment at the MIC, 24 h; control 4.5 × 10^3 CFU/well
Experimental: The medium was used as a positive control. […] Three independent experiments were performed.

[7] = test system: C. neoformans mature biofilm; experiment: Antibiofilm activity, mature biofilm at 48 h (XTT reduction); type: cell-based, Cryptococcus neoformans
Experimental: as §5

zebrafish embryos = experiment: Survival of infected zebrafish embryos under treatment; type: in vivo; conditions: treatment at the MIC for 24 h
Experimental: as §3

With “KKVKGML-NH2 [MK58911(8–14)-NH2, KKVKGML-NH2]” the “C. gattii MIC” value (C. gattii) was >250 µg/mL, the “C. neoformans MIC” value (C. neoformans [1]) was >250 µg/mL and the IC50 at 24 h (in vitro [2]) was > 500 µg/mL.
With “INWLHIAHHVHGML-NH2 [MH58911-NH2, INWLHIAHHVHGML-NH2]” the IC50 at 24 h (in vitro [3]) was > 250 µg/mL, the “C. gattii MIC” value (C. gattii) was >250 µg/mL and the “C. neoformans MIC” value (C. neoformans [1]) was >250 µg/mL. The IC50 at 24 h (in vitro [2]) was > 500 µg/mL.
For “LKIAKKVK-OH [MK58911(4–11)-OH, LKIAKKVK-OH]”, the IC50 at 24 h (in vitro [2]) was > 500 µg/mL.
In the case of `C[C@@H]1[C@H](O)[C@@H](C)/C=C/C=C/C=C/C=C/C=C/C=C/C=C/[C@H](O[C@@H]2O[C@H](C)[C@@H](O)[C@H](N)[C@@H]2O)C[C@@H]2O[C@](O)(C[C@@H](O)C[C@@H](O)[C@H](O)CC[C@@H](O)C[C@@H](O)CC(=O)O[C@H]1C)C[C@H](O)[C@H]2C(=O)O` [Amphotericin B], the “fungal burden (CFU) of embryos' chorion vs untreated control” value (C. neoformans [4]) is reported as “significant reduction in CFU”, the MIC (C. gattii) is reported as 0.125 µg/mL (≈ 0.135 µM) and the MIC (C. neoformans [1]) is reported as 0.125 µg/mL (≈ 0.135 µM). For the same compound, the “concentration at which formation of C. neoformans biofilms can be prevented” value [5] was > 0.5 µg/mL, the “intramacrophagic fungal burden (average)” value [6] was 1.1 × 10^3 CFU/well and the “concentration at which mature biofilms can be inhibited” value ([7]; mature biofilms) was > 2 µg/mL.
With “INWLKIA-OH [MK58911(1–7)-OH, INWLKIA-OH]” the IC50 at 24 h (in vitro [2]) was > 500 µg/mL.
In the case of `OC(Cn1cncn1)(Cn1cncn1)c1ccc(F)cc1F` [Fluconazole], the “fungal burden (CFU) of embryos' chorion vs untreated control” value (C. neoformans [4]) is reported as “did not reduce the fungal burden”, the MIC (C. gattii) is reported as 8 µg/mL (≈ 26.1 µM) and the MIC (C. neoformans [1]) is reported as 1 µg/mL (≈ 3.27 µM). For the same compound, the “intramacrophagic fungal burden (average)” value [6] was 1.8 × 10^3 CFU/well and the “susceptibility of C. neoformans biofilms” value ([7]; biofilms in vitro, corroborates ref 13) was “resistant”.
In the case of “INWLKIAKKVKGML-NH2 [MK58911-NH2, INWLKIAKKVKGML-NH2]”, the IC50 at 24 h (in vitro [3]) is reported as 62.5 µg/mL, the “embryo survival under treatment” value (zebrafish embryos) is reported as “All embryos survived” and the “C. gattii MIC” value (C. gattii) is reported as 15.63 µg/mL. For the same compound, the “C. neoformans MIC” value (C. neoformans [1]) was 31.25 µg/mL and the IC50 at 24 h (in vitro [2]) was > 500 µg/mL.
